The target in one assay is S1P1 receptor (Homo sapiens, UniProt P21453). Nature of the assay: 35S-GTPγS binding, membranes from CHO cells expressing S1P1. Type of assay: biochemical. The note with it: CHO cell membranes expressing S1P1. Summed up:
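Membranes (1–10 μg) from CHO cells expressing the receptor were incubated with compound in 20 mM HEPES pH 7.4, 10 mM MgCl2, 140 mM NaCl, 1.7 μM GDP, saponin and 0.2% BSA. [35S]GTPγS (added at 1.5 nM) was then bound for 60 min at 30 °C. Membrane-bound radioactivity, averaged over triplicates, is expressed relative to S1P activation (n=2).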
In general terms: GTPγS is a poorly hydrolysed GTP analogue; its binding reports G protein activation.

In the next assay the target is S1P3 receptor (Homo sapiens, UniProt Q99500). Nature of the assay: 35S-GTPγS binding, membranes from CHO cells expressing S1P3. Type of assay: biochemical. The note with it: CHO cell membranes expressing S1P3. How it is done:
Receptor binding assay: Membranes were prepared from CHO cells expressing S1P1 or S1P3 for use in ligand and 35S-GTPTS binding studies. Cells were suspended in 50 mM TRIS, pH 7.4, 2 mM EDTA, 250 mM Sucrose (buffer A) and 1× Complete protease inhibitor cocktail (Roche), and disrupted at 4° C. by nitrogen decompression using a cell disruption bomb (Parr Instrument). Following centrifugation at 1000 RPM for 10 min at 4° C., the supernatant was suspended in buffer A and centrifuged again at 19000 RPM for 60 min at 4° C. The pellet was then suspended in 10 mM HEPES, pH 7.4, 1 mM EDTA, 250 mM Sucrose (Buffer B), and 1× Complete EDTA-free protease inhibitor cocktail and homogenized using a potter. Membranes were flash frozen in liquid nitrogen and stored at −80° C. [33P]sphingosine 1-phosphate (3000 Ci/mmol; American Radiolabeled Chemicals, Inc.) was added to test compounds in DMSO. Membranes and WGA SPA beads (GE Healthcare) were added to give a final volume of 100 μl in 96-well plates with assay concentrations of […] [33P]sphingosine 1-phosphate (respectively for S1P1 or S1P3), 50 mM HEPES, pH 7.5, 5 mM MgCl2, 100 mM NaCl, 0.4% fatty acid-free BSA, 1-5 μg/well of proteins and 100 μg/well of WGA SPA beads. Binding was performed for 60 min at room temperature on a shaker and bound radioactivity was measured on a PerkinElmer 1450 MicroBeta counter. Specific binding was calculated by subtracting remaining radioactivity in the presence of 1000-fold excess of unlabeled S1P. Binding data were analyzed using the GraphPad Prism program.
Measurements of ^35S-GTPγS Binding: Membranes (1 to 10 μg protein) prepared as described above, were incubated in 96-well Scintiplates (PerkinElmer) with test compounds diluted in DMSO, in 180 μl of 20 mM HEPES, pH 7.4, 10 mM MgCl2, 2 μg/well Saponin, 0.2% fatty acid free BSA (Assay buffer), 140 mM NaCl and 1.7 μM GDP. The assay was initiated with the addition of 20 μl of 1.5 nM [35S]-GTPγS (1100 Ci/mmol; GE Healthcare) in assay buffer. After 60 min incubation at 30° C. on a shaker, plates were centrifuged for 10 min at 2000 RPM. Supernatant was discarded and membrane bound radioactivity was measured on a PerkinElmer 1450 MicroBeta counter. Triplicate samples were averaged and expressed as response relative to S1P activation in absence of compound (n=2).

EC50 data for twelve molecules are collected here from patent publication US8202856B2 (Merck Serono SA, priority 2007, dated 2012).

Each structure is given as a SMILES string. pEC50: −log10 of the molar value.

Sequence of S1P3 receptor (Q99500 whole entry): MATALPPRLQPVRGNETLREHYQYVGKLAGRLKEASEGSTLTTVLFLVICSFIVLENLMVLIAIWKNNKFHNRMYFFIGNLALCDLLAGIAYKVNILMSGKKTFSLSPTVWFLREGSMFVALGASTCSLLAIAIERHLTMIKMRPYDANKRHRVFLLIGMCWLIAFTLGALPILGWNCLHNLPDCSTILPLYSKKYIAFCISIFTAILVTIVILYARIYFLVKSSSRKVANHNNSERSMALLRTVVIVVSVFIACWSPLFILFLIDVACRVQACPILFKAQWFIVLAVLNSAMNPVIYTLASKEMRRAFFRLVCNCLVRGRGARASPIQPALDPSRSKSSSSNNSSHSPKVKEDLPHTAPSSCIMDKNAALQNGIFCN
Sequence of S1P1 receptor (P21453 whole entry): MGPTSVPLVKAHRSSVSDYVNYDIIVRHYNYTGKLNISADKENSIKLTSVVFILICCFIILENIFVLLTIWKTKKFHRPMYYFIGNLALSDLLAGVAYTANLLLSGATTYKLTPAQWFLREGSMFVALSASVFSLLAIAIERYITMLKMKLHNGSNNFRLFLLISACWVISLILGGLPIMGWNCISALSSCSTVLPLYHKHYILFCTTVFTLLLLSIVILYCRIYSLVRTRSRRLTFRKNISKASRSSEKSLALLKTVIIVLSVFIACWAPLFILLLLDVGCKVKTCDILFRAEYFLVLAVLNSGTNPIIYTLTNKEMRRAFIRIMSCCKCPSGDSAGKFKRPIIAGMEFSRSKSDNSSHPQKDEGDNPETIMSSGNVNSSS

Broadly, the pEC50 is the EC50 on a negative log10 scale, so that one unit is a factor of ten. A lower pEC50 goes with a high EC50. Regarding `Fc1ccc(F)c(-c2noc(-c3nnn(-c4ccccc4F)c3CN3CCCC3)n2)c1` [Example 92, 3-(2,5-difluorophenyl)-5-[1-(2-fluorophenyl)-5-(pyrrolidin-1-ylmethyl)-1H-1,2,3-triazol-4-yl]-1,2,4-oxadiazole], the pEC50 is 7.04 at S1P1 receptor and under 4.70 on S1P3 receptor.
Taken in the same sequence, the figures for `Fc1ccccc1-n1nnc(-c2nc(-c3ccc4[nH]ncc4c3)no2)c1-c1ccncc1` [Example 116, 5-{5-[1-(2-fluorophenyl)-5-pyridin-4-yl-1H-1,2,3-triazol-4-yl]-1,2,4-oxadiazol-3-yl}-1H-indazole] were 8.40 and 6.79.
Taken in the same sequence, the figures for `Fc1ccccc1-c1noc(-c2nnn(-c3ccccc3F)c2C2CCOCC2)n1` [Example 59, 3-(2-fluorophenyl)-5-[1-(2-fluorophenyl)-5-(tetrahydro-2H-pyran-4-yl)-1H-1,2,3-triazol-4-yl]-1,2,4-oxadiazole] were 6.81 and under 4.70.
Taken in the same sequence, the figures for `O=C(O)c1ccc(-c2noc(-c3nnn(-c4ccccc4F)c3-c3ccccc3)n2)c(F)c1` [Example 33, 3-Fluoro-4-{5-[1-(2-fluorophenyl)-5-phenyl-1H-1,2,3-triazole-4-yl]-1,2,4-oxadiazole-3-yl}benzoic acid] were 6.30 and under 4.70.
On to `Fc1ccccc1-n1nnc(-c2nc(-c3cccc(C(F)(F)F)c3)no2)c1-c1ccccc1` [Example 21, 5-[1-(2-Fluorophenyl)-5-phenyl-1H-1,2,3-triazole-4-yl]-3-[3-(trifluoromethyl)phenyl]-1,2,4-oxadiazole], for which the pEC50 on S1P1 receptor was 7.39; on S1P3 receptor, under 4.52.
Taken in the same sequence, the figures for `CS(=O)(=O)c1cccc(-c2noc(-c3nnn(-c4ccccc4F)c3-c3ccncc3)n2)c1` [Example 52, 4-(1-(2-fluorophenyl)-4-{3-[3-(methylsulfonyl)phenyl]-1,2,4-oxadiazol-5-yl}-1H-1,2,3-triazol-5-yl)pyridine] were 7.48 and under 4.70.
`CCCCc1c(-c2nc(-c3ccccc3)no2)nnn1-c1ccccc1F` [Example 17, 5-[5-Butyl-1-(2-fluorophenyl)-1H-1,2,3-triazole-4-yl]-3-phenyl-1,2,4-oxadiazole]: the pEC50 is 6.84 at S1P1 receptor and 5.31 on S1P3 receptor.
For `O=C(O)CCNCc1ccc(-c2noc(-c3nnn(-c4ccccc4F)c3-c3ccncc3)n2)cc1` [Example 127, N-(4-{5-[1-(2-fluorophenyl)-5-pyridin-4-yl-1H-1,2,3-triazol-4-yl]-1,2,4-oxadiazol-3-yl}benzyl)-beta-alanine], in that order: 9.00 and 6.50.
Taken in the same sequence, the figures for `Fc1ccc(F)c(-c2noc(-c3nnn(-c4ccccc4F)c3-c3ccncc3)n2)c1` [Example 31, 4-[4-[3-(2,5-Difluorophenyl)-1,2,4-oxadiazole-5-yl]-1-(2-fluorophenyl)-1H-1,2,3-triazole-5-yl]pyridine] were 8.15 and 5.75.
`CCc1c(-c2nc(-c3cc(F)ccc3F)no2)nnn1-c1ccccc1F` [Example 7, 3-(2,5-Difluorophenyl)-5-[5-ethyl-1-(2-fluorophenyl)-1H-1,2,3-triazole-4-yl]-1,2,4-oxadiazole] gave a pEC50 on S1P3 receptor of under 4.52.
Consider `Fc1ccc(F)c(-c2noc(-c3nnn(-c4ccccc4F)c3CN3CCOCC3)n2)c1` [Example 39, 4-{[4-[3-(2,5-difluorophenyl)-1,2,4-oxadiazol-5-yl]-1-(2-fluorophenyl)-1H-1,2,3-triazol-5-yl]methyl}morpholine], for which the pEC50 on S1P1 receptor was 7.04; on S1P3 receptor, 6.13.
For `CCc1c(-c2nc(-c3ccccc3F)no2)nnn1-c1ccccc1F` [Example 6, 5-[5-Ethyl-1-(2-fluorophenyl)-1H-1,2,3-triazole-4-yl]-3-(2-fluorophenyl)-1,2,4-oxadiazole], the pEC50 at S1P1 receptor is 6.25; on S1P3 receptor, under 4.52.
